In PubChem BioAssay AID256 (DTP/NCI, 2004):
Several values for one entry are separate records, joined by “and”; a condition that tells them apart may be missing. Identical values can stand only once. Inconclusive results and toxic doses are left out. Rule for the calls: active = survival T/C of 150% or more; inactive = T/C below 125% in these data.

Tested on: CD2F1 mice, L1210 leukemia ip, survival T/C
Test: NCI In Vivo Anticancer Drug Screen. Data for tumor model L1210 Leukemia (intraperitoneal) in CD2F1 (CDF1) mice
Conditions: endpoint: mean survival time, higher = longer survival
Method in brief: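 Activity against a transplanted murine tumor was judged by comparing the compound group with a vehicle group. The outcome in the treated animals was divided by that in the controls.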

[1] = dose: 50.0 mg/kg/injection, schedule: Q04DX002 (ip), vehicle: saline with Tween-80
[2] = dose: 100.0 mg/kg/injection, schedule: Q04DX002 (ip), vehicle: saline with Tween-80
[3] = dose: 200.0 mg/kg/injection, schedule: Q04DX002 (ip), vehicle: saline with Tween-80
[4] = dose: 12.5 mg/kg/injection, schedule: Q01DX009 (ip), vehicle: saline with Tween-80
[5] = dose: 100.0 mg/kg/injection, schedule: Q04DX003 (ip), vehicle: saline with Tween-80
[6] = dose: 200.0 mg/kg/injection, schedule: Q04DX003 (ip), vehicle: saline with Tween-80
[7] = dose: 400.0 mg/kg/injection, schedule: Q04DX003 (ip), vehicle: saline with Tween-80
[8] = dose: 6.25 mg/kg/injection, schedule: Q01DX009 (ip), vehicle: saline with Tween-80
[9] = dose: 25.0 mg/kg/injection, schedule: Q01DX009 (ip), vehicle: saline with Tween-80
[10] = dose: 50.0 mg/kg/injection, schedule: Q01DX009 (ip), vehicle: saline with Tween-80
[11] = dose: 100.0 mg/kg/injection, schedule: Q01DX009 (ip), vehicle: saline with Tween-80
[12] = dose: 200.0 mg/kg/injection, schedule: Q01DX009 (ip), vehicle: saline with Tween-80
[13] = dose: 100.0 mg/kg/injection, schedule: Q01DX001 (ip), vehicle: saline with Tween-80
[14] = dose: 400.0 mg/kg/injection, schedule: Q01DX001 (ip), vehicle: saline with Tween-80
[15] = dose: 50.0 mg/kg/injection, schedule: Q01DX009 (ip), vehicle: Klucel (hydroxypropylcellulose) (HPC)
[16] = dose: 100.0 mg/kg/injection, schedule: Q01DX009 (ip), vehicle: Klucel (hydroxypropylcellulose) (HPC)
[17] = dose: 200.0 mg/kg/injection, schedule: Q01DX009 (ip), vehicle: Klucel (hydroxypropylcellulose) (HPC)
[18] = dose: 75.0 mg/kg/injection, schedule: Q01DX001 (ip), vehicle: saline
[19] = dose: 6.25 mg/kg/injection, schedule: Q04DX003 (ip), vehicle: saline with Tween-80
[20] = dose: 12.5 mg/kg/injection, schedule: Q04DX003 (ip), vehicle: saline with Tween-80
[21] = dose: 25.0 mg/kg/injection, schedule: Q04DX003 (ip), vehicle: saline with Tween-80
[22] = dose: 200.0 mg/kg/injection, schedule: Q01DX001 (ip), vehicle: saline with Tween-80

Measured: T/C

CCCCCCCCCCCCCCCC1CCCC(C)N1 (stereo not given)
inactive: [1] 90 % of control and 105 % of control | [2] 87 % of control | [3] 87 % of control

CCCCCCCCCCCCNC(=O)c1ccc[n+](Cc2ccc(Cl)c(Cl)c2)c1
inactive: [4] 98 % of control | dose: 12.5 mg/kg/injection, schedule: Q04DX003 (ip), vehicle: saline sonified 98 % of control | dose: 25.0 mg/kg/injection, schedule: Q04DX003 (ip), vehicle: saline sonified 98 % of control | dose: 50.0 mg/kg/injection, schedule: Q04DX003 (ip), vehicle: saline sonified 95 % of control

COC(=O)CNC(=O)C(F)(F)F
inactive: dose: 100.0 mg/kg/injection, schedule: Q01DX001 (ip), vehicle: saline 104 % of control | [5] 103 % of control | dose: 200.0 mg/kg/injection, schedule: Q01DX001 (ip), vehicle: saline 112 % of control | [6] 101 % of control | dose: 400.0 mg/kg/injection, schedule: Q01DX001 (ip), vehicle: saline 104 % of control | [7] 103 % of control

O=C(CBr)c1ccccc1
inactive: dose: 5.0 mg/kg/injection, schedule: Q01DX009 (ip), vehicle: saline with Tween-80 97 % of control | dose: 10.0 mg/kg/injection, schedule: Q01DX009 (ip), vehicle: saline with Tween-80 93 % of control

CCCCCCCCCCCCSC1=C(Cl)C(=O)C(OC)=C(OC)C1=O
inactive: [8] 91 % of control | [4] 94 % of control | [9] 95 % of control | [10] 93 % of control

O=C(C(=Nc1ccccc1)c1ccccc1)c1ccccc1
inactive: [10] 100 % of control | [11] 97 % of control | [12] 97 % of control

CCCC(N)C(=O)O (stereo not given)
inactive: [10] 106 % of control | [11] 98 % of control | [12] 104 % of control

O=C(CCl)c1ccc(Cl)cc1
inactive: dose: 12.0 mg/kg/injection, schedule: Q01DX009 (ip), vehicle: saline with Tween-80 102 % of control | dose: 24.0 mg/kg/injection, schedule: Q01DX009 (ip), vehicle: saline with Tween-80 104 % of control | dose: 48.0 mg/kg/injection, schedule: Q01DX009 (ip), vehicle: saline with Tween-80 103 % of control

Cc1ccc(/C=N/NC(=O)CNC(=O)Nc2cccc([N+](=O)[O-])c2)cc1
inactive: [10] 92 % of control | [11] 88 % of control

COc1cc[n+](C)cc1
inactive: dose: 100.0 mg/kg/injection, schedule: Q04DX002 (ip), vehicle: saline 100 % of control | dose: 200.0 mg/kg/injection, schedule: Q04DX002 (ip), vehicle: saline 91 % of control | dose: 400.0 mg/kg/injection, schedule: Q04DX002 (ip), vehicle: saline 95 % of control

CCN(CC)c1ccc(N=Cc2cc(=O)n(C)c3ccccc23)cc1
inactive: [13] 102 % of control | [14] 91 % of control

COc1ccc(NC(=O)Nc2nccs2)c(Cl)c1
inactive: [15] 98 % of control | [16] 98 % of control | dose: 100.0 mg/kg/injection, schedule: Q04DX003 (ip), vehicle: Klucel (hydroxypropylcellulose) (HPC) 106 % of control | [17] 87 % of control | dose: 200.0 mg/kg/injection, schedule: Q04DX003 (ip), vehicle: Klucel (hydroxypropylcellulose) (HPC) 102 % of control | dose: 400.0 mg/kg/injection, schedule: Q04DX003 (ip), vehicle: Klucel (hydroxypropylcellulose) (HPC) 98 % of control

O=C(O)c1cc2c(Cl)cccc2[nH]1
inactive: [9] 109 % of control | [10] 98 % of control | [11] 94 % of control | [5] 106 % of control

COc1ccccc1NC(=O)Oc1c(C)cccc1C
inactive: [2] 92 % of control | [3] 100 % of control | dose: 400.0 mg/kg/injection, schedule: Q04DX002 (ip), vehicle: saline with Tween-80 111 % of control

COc1ccc(CNc2ccc([N+](=O)[O-])c3nonc23)cc1
inactive: [15] 94 % of control | [16] 86 % of control | [17] 94 % of control

CN(C=O)NC(=O)Nc1ccccc1
inactive: [18] 100 % of control | dose: 150.0 mg/kg/injection, schedule: Q01DX001 (ip), vehicle: saline 100 % of control | dose: 300.0 mg/kg/injection, schedule: Q01DX001 (ip), vehicle: saline 102 % of control

CCCCCCCCCCCCCCCC(=O)N(C/C=C/CN(CCCN(C)C)C(=O)CCCCCCCCCCCCCCC)CCCN(C)C
inactive: [8] 92 % of control | [19] 95 % of control | [4] 93 % of control | [20] 93 % of control | [9] 94 % of control | [21] 98 % of control

CCOC(=O)N1CCN(N=Nc2c(C(=O)OC)n[nH]c2C)CC1
inactive: dose: 75.0 mg/kg/injection, schedule: Q01DX001 (ip), vehicle: other 103 % of control | dose: 150.0 mg/kg/injection, schedule: Q01DX001 (ip), vehicle: other 105 % of control | dose: 300.0 mg/kg/injection, schedule: Q01DX001 (ip), vehicle: other 105 % of control

CC1(C)OC2CC3CC(OC3=O)C2O1 (stereo not given)
inactive: [13] 107 % of control | [22] 97 % of control | [14] 107 % of control

Nc1ccc(S(=O)(=O)c2ccc(NCC(=O)O)cc2)cc1
inactive: dose: 100.0 mg/kg/injection, schedule: Q04DX003 (ip), vehicle: saline 100 % of control | dose: 200.0 mg/kg/injection, schedule: Q04DX003 (ip), vehicle: saline 100 % of control | dose: 400.0 mg/kg/injection, schedule: Q04DX003 (ip), vehicle: saline 100 % of control

CN(C)/C=C/C#N
inactive: [18] 102 % of control

CC(C)CCCCCCCCCCCCC(=O)NCC(=O)NC1C(C)OC(Nc2ncnc3nc[nH]c23)C(O)C1O (stereo not given)
inactive: dose: 0.25 mg/kg/injection, schedule: Q01DX009 (ip), vehicle: distilled water + Tween-80 100 % of control and 102 % of control | dose: 0.5 mg/kg/injection, schedule: Q01DX009 (ip), vehicle: distilled water + Tween-80 96 % of control and 100 % of control | dose: 1.0 mg/kg/injection, schedule: Q01DX009 (ip), vehicle: distilled water + Tween-80 96 % of control and 104 % of control | dose: 2.0 mg/kg/injection, schedule: Q01DX009 (ip), vehicle: distilled water + Tween-80 98 % of control and 107 % of control | dose: 4.0 mg/kg/injection, schedule: Q01DX009 (ip), vehicle: distilled water + Tween-80 96 % of control and 106 % of control | dose: 8.0 mg/kg/injection, schedule: Q01DX009 (ip), vehicle: distilled water + Tween-80 94 % of control and 102 % of control

Nc1nc2c(ncn2-c2ccc(NC(=O)c3cccc(S(=O)(=O)F)c3)cc2)c(=O)[nH]1
inactive: dose: 37.5 mg/kg/injection, schedule: Q04DX002 (ip), vehicle: saline with Tween-80 90 % of control | dose: 75.0 mg/kg/injection, schedule: Q04DX002 (ip), vehicle: saline with Tween-80 111 % of control | dose: 150.0 mg/kg/injection, schedule: Q04DX002 (ip), vehicle: saline with Tween-80 94 % of control

O=C(CCCC(=O)c1ccccc1)OC1(c2ccccc2)CCCC(=O)O1 (stereo not given)
inactive: [1] 98 % of control | [2] 98 % of control | [3] 94 % of control

CC(NC1=C(Cl)C(=O)c2ccccc2C1=O)c1ccccc1 (stereo not given)
inactive: [21] 102 % of control | dose: 50.0 mg/kg/injection, schedule: Q04DX003 (ip), vehicle: saline with Tween-80 96 % of control | [5] 95 % of control

CC(C)c1cc(C(C)C)n2nc(N)nc2n1
inactive: [5] 106 % of control | [6] 98 % of control | [7] 97 % of control

Nc1ccc(OCCc2c(N)nc(N)nc2N)cc1
inactive: dose: 100.0 mg/kg/injection, schedule: Q04DX002 (ip), vehicle: Klucel (hydroxypropylcellulose) (HPC) 98 % of control | dose: 200.0 mg/kg/injection, schedule: Q04DX002 (ip), vehicle: Klucel (hydroxypropylcellulose) (HPC) 102 % of control | dose: 400.0 mg/kg/injection, schedule: Q04DX002 (ip), vehicle: Klucel (hydroxypropylcellulose) (HPC) 98 % of control

CC([NH-])C([NH-])O.[I][Pt+2][I] (stereo not given)
inactive: [19] 97 % of control | [20] 115 % of control | [21] 121 % of control

CCc1c(Br)c(CC)c(Br)c(CC)c1Br
inactive: [5] 98 % of control | [6] 97 % of control | [7] 98 % of control

O=C(COc1cccc(Cl)c1)NCc1cccc(NC(=O)Nc2cccc(S(=O)(=O)F)c2)c1
inactive: [13] 91 % of control | [22] 98 % of control | [14] 101 % of control
